Assay [1] concerns the target T1, B1R receptor of the rat (rB1R) (Rattus norvegicus, UniProt P97583).
T1 construct: expressed in transfected cells; host or cells: CHO K1 cells (Chinese hamster ovary), stably transfected
T1 sequence (P97583 1-337): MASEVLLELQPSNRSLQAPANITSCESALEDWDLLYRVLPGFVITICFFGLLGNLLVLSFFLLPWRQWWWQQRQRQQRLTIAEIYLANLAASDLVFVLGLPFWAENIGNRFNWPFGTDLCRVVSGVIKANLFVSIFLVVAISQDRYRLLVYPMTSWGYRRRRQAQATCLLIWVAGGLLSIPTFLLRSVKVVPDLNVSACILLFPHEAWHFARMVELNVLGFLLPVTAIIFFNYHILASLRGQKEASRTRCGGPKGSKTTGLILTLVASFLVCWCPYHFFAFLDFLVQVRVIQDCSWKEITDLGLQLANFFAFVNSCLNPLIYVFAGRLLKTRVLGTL
In words: Functional FLIPR Ca2+ assay on the bradykinin 1 receptor, rat (rB1R CHO K1 cells). Type of assay: cell-based. To be noted: test substance 10 μM; CHO K1 cells transfected with rat B1R gene; agonist Des-Arg9-bradykinin at EC80; % inhibition compared with maximum achievable inhibition; read-out: B1R antagonism, rat [10 μM] % inhibition. The method, boiled down: (§1)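 Stably transfected CHO K1 cells expressing human or rat B1R, Fluo-4-loaded, Ca2+ influx read by FLIPR (peak fluorescence). Compounds (10 μM for % activation) preincubated 10-20 min, then EC80 agonist added: Lys-Des-Arg9-bradykinin for human, Des-Arg9-bradykinin for rat; % inhibition versus maximal inhibition, IC50 from concentration series.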

Assay [2] concerns the target T2, human B1R receptor (hB1R) (Homo sapiens, UniProt P46663).
T2 construct: expressed in transfected cells; host or cells: CHO K1 cells (Chinese hamster ovary), stably transfected
T2 sequence (P46663 1-353): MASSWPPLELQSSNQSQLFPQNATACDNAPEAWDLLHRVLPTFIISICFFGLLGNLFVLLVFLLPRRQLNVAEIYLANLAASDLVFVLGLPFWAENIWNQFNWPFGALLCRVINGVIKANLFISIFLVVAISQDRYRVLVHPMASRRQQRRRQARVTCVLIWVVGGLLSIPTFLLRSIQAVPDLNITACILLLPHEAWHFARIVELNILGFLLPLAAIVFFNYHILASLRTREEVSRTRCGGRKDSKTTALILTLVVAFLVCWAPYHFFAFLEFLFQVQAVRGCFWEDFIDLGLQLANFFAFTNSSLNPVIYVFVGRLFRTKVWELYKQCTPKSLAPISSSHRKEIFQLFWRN
In words: Functional FLIPR Ca2+ assay on the bradykinin 1 receptor, human (hB1R CHO K1 cells). It counts as cell-based. To be noted: test substance 10 μM; CHO K1 cells transfected with human B1R gene; agonist Lys-Des-Arg9-bradykinin at EC80; % inhibition compared with maximum achievable inhibition; read-out: B1R antagonism, human (10 μM] % inhibition. The essentials:
as §1

Usually inhibition stands for the drop in the measured response relative to a control, in per cent.

Consider `COc1cc(C)c(S(=O)(=O)N2CCCCC2COCC(=O)N2CCc3onc(CN4CCOCC4)c3C2)c(C)c1` (stereo not shown) [Example 29, 2-((1-(4-methoxy-2,6-dimethylphenylsulfonyl)piperidin-2-yl)methoxy)-1-(3-(morpholinomethyl)-6,7-dihydroisoxazolo[4,5-c]pyridin-5(4H)-yl)ethanone], for which the inhibition at 10 µM in assay [1] stood at 101%; in assay [2], 99%.

Turning to `COc1cc(C)c(S(=O)(=O)N(C)CCOCC(=O)N2CCc3onc(CN4CCOCC4)c3C2)c(C)c1` [Example 30, 4-methoxy-N,2,6-trimethyl-N-(2-(2-(3-(morpholinomethyl)-6,7-dihydroisoxazolo[4,5-c]pyridin-5(4H)-yl)-2-oxoethoxy)ethyl)benzenesulfonamide], the inhibition at 10 µM was found to be 104% in assay [1] and 99% in assay [2].

In the case of `COc1cc(C)c(S(=O)(=O)N2CCCCC2COCC(=O)N2CCc3onc(CN(C)C)c3C2)c(C)c1` (stereo not shown) [Example 31, 1-(3-((dimethylamino)methyl)-6,7-dihydroisoxazolo[4,5-c]pyridin-5(4H)-yl)-2-((1-(4-methoxy-2,6-dimethylphenylsulfonyl)piperidin-2-yl)methoxy)ethanone], the inhibition at 10 µM came out at 105% in assay [1] and 100% in assay [2].

Take `COc1cc(C)c(S(=O)(=O)N(C)CCOCC(=O)N2CCc3onc(CN(C)C)c3C2)c(C)c1` [Example 32, N-(2-(2-(3-((dimethylamino)methyl)-6,7-dihydroisoxazolo[4,5-c]pyridin-5(4H)-yl)-2-oxoethoxy)ethyl)-4-methoxy-N,2,6-trimethylbenzenesulfonamide]: the inhibition at 10 µM amounted to 104% in assay [1] and 99% in assay [2].

For `Cc1cc(S(=O)(=O)N2CCCCC2CCC(=O)N2CCc3sccc3C2c2ccc(Cl)nc2)c(C)cc1Cl` (stereo not shown) [Example 33, 3-(1-(4-chloro-2,5-dimethylphenylsulfonyl)piperidin-2-yl)-1-(4-(6-chloropyridin-3-yl)-6,7-dihydrothieno[3,2-c]pyridin-5(4H)-yl)propan-1-one], the inhibition at 10 µM in assay [1] was 35%; in assay [2] it was 40%.

For `Cc1cc(S(=O)(=O)N2CCCCC2CCC(=O)N2CCc3sccc3C2c2cccc(C(F)(F)F)c2)c(C)cc1Cl` (stereo not shown) [Example 34, 3-(1-(4-chloro-2,5-dimethylphenylsulfonyl)piperidin-2-yl)-1-(4-(3-(trifluoromethyl)phenyl)-6,7-dihydrothieno[3,2-c]pyridin-5(4H)-yl)propan-1-one], the inhibition at 10 µM was found to be 57% in assay [1] and 29% in assay [2].

Take `Cc1cc(S(=O)(=O)N2CCCCC2CCC(=O)N2CCc3sccc3C2c2cccc(F)c2)c(C)cc1Cl` (stereo not shown) [Example 35, 3-(1-(4-chloro-2,5-dimethylphenylsulfonyl)piperidin-2-yl)-1-(4-(3-fluorophenyl)-6,7-dihydrothieno[3,2-c]pyridin-5(4H)-yl)propan-1-one]: the inhibition at 10 µM in assay [1] was 3%; in assay [2] it was 41%.

With `COc1cc(C)c(S(=O)(=O)N2CCCCC2COCC(=O)N2CCc3sccc3C2c2ccncc2)c(C)c1` (stereo not shown) [Example 36, 2-((1-(4-methoxy-2,6-dimethylphenylsulfonyl)piperidin-2-yl)methoxy)-1-(4-(pyridin-4-yl)-6,7-dihydrothieno[3,2-c]pyridin-5(4H)-yl)ethanone], the inhibition at 10 µM in assay [1] and in assay [2] was 100% throughout.

With `O=C(CC1CCCCN1S(=O)(=O)c1cccc(C(F)(F)F)c1)N1CCc2nc(-c3ccncc3)sc2C1` (stereo not shown) [Example 37, 1-(2-(pyridin-4-yl)-6,7-dihydrothiazolo[5,4-c]pyridin-5(4H)-yl)-2-(1-(3-(trifluoromethyl)phenylsulfonyl)piperidin-2-yl)ethan-1-one], the results for the inhibition at 10 µM in assay [1] and in assay [2] were 97% and 28%, respectively.

`COc1cc(C)c(S(=O)(=O)N2CCCCC2COCC(=O)N2CCc3nc(Cc4ccncc4)sc3C2)c(C)c1` (stereo not shown) [Example 38, 2-((1-(4-methoxy-2,6-dimethylphenylsulfonyl)piperidin-2-yl)methoxy)-1-(2-(pyridin-4-ylmethyl)-6,7-dihydrothiazolo[5,4-c]pyridin-5(4H)-yl)ethan-1-one]: the results for the inhibition at 10 µM in assay [1] and in assay [2] were 97% and 99%, respectively.

Turning to `COc1cc(C)c(S(=O)(=O)N(C)CCOCC(=O)N2CCc3nc(Cc4ccncc4)sc3C2)c(C)c1` [Example 39, 4-methoxy-N,2,6-trimethyl-N-(2-(2-oxo-2-(2-(pyridin-4-ylmethyl)-6,7-dihydrothiazolo[5,4-c]pyridin-5(4H)-yl)ethoxy)ethyl)benzenesulfonamide], the values for the inhibition at 10 µM in assay [1] and in assay [2] were 99% and 100%, respectively.

As to `O=C(CC1CCCCN1S(=O)(=O)c1cccc(C(F)(F)F)c1)N1CCc2nc(Cc3ccncc3)sc2C1` (stereo not shown) [Example 40, 1-(2-(pyridin-4-ylmethyl)-6,7-dihydrothiazolo[5,4-c]pyridin-5(4H)-yl)-2-(1-(3-(trifluoromethyl)phenylsulfonyl)piperidin-2-yl)ethan-1-one], the inhibition at 10 µM is 90% in assay [1] and 51% in assay [2].

Consider `COc1cc(C)c(S(=O)(=O)N2CCCCC2CCC(=O)N2CCc3nc(Cc4ccncc4)sc3C2)c(C)c1` (stereo not shown) [Example 41, 3-(1-(4-methoxy-2,6-dimethylphenylsulfonyl)piperidin-2-yl)-1-(2-(pyridin-4-ylmethyl)-6,7-dihydrothiazolo[5,4-c]pyridin-5(4H)-yl)propan-1-one], for which the inhibition at 10 µM in assay [1] worked out at 99%; in assay [2] it was 64%.

For the compound `COc1cc(C)c(S(=O)(=O)N2CCCCC2CCCC(=O)N2CCc3nc(Cc4ccncc4)sc3C2)c(C)c1` (stereo not shown) [Example 43, 4-(1-(4-methoxy-2,6-dimethylphenylsulfonyl)piperidin-2-yl)-1-(2-(pyridin-4-ylmethyl)-6,7-dihydrothiazolo[5,4-c]pyridin-5(4H)-yl)butan-1-one], the inhibition at 10 µM in assay [1] and in assay [2] was 99% each time.

`CN1CCN(Cc2cc3c(s2)CCN(C(=O)CC2CCCCN2S(=O)(=O)c2cccc(C(F)(F)F)c2)C3)CC1` (stereo not shown) [Example 44, 1-(2-((4-methylpiperazin-1-yl)methyl)-6,7-dihydrothieno[3,2-c]pyridin-5(4H)-yl)-2-(1-(3-(trifluoromethyl)phenylsulfonyl)piperidin-2-yl)ethan-1-one]: the figures for the inhibition at 10 µM in assay [1] and in assay [2] were 59% and 83%, respectively.

As for `COc1cc(C)c(S(=O)(=O)N2CCCCC2CCC(=O)N2CCc3sc(CN4CCN(C)CC4)cc3C2)c(C)c1` (stereo not shown) [Example 45, 3-(1-(4-methoxy-2,6-dimethylphenylsulfonyl)piperidin-2-yl)-1-(2-((4-methylpiperazin-1-yl)methyl)-6,7-dihydrothieno[3,2-c]pyridin-5(4H)-yl)propan-1-one], the inhibition at 10 µM amounted to 99% in assay [1] and 98% in assay [2].

As to `COc1cc(C)c(S(=O)(=O)N2CCCCC2CCCC(=O)N2CCc3sc(CN4CCN(C)CC4)cc3C2)c(C)c1` (stereo not shown) [Example 47, 4-(1-(4-methoxy-2,6-dimethylphenylsulfonyl)piperidin-2-yl)-1-(2-((4-methylpiperazin-1-yl)methyl)-6,7-dihydrothieno[3,2-c]pyridin-5(4H)-yl)butan-1-one], the inhibition at 10 µM in assay [1] was 101%; in assay [2], 100%.

(Values after patent US8268814B2, “Substituted sulfonamide compounds” (Gruenenthal GmbH, priority 2008, dated 2012).)
